Test results as given in publication PMC3457657 (Medicinal chemistry research : an international journal for …, 2011).
Like-named read-outs stand apart in the source and are kept apart here.

Assays:
S. aureus = conditions: ref Desbois et al., 2008; cited from earlier work
[1] = tested on: Cryptococcus neoformans ATCC 90113; assay: In vitro antimicrobial; assay type: cell-based; conditions: ATCC90113, read-out: IC50 Antifungal C. neoformans
[2] = tested on: Staphylococcus aureus ATCC 29213; assay: In vitro antimicrobial; assay type: cell-based; conditions: ATCC29213, read-out: IC50 Antibacterial S. aureus
[3] = tested on: mitochondrial respiration; conditions: ref Kawai et al., 1986; cited from earlier work
[4] = ref Mikaye et al., 2009; Ishikawa et al., 1984; Li et al., 2006; cited from earlier work
[5] = tested on: mouse skin tumor promotion; conditions: two-stage carcinogenesis; ref Mikaye et al., 2010; cited from earlier work
HeLa cells = conditions: cited from earlier work
[6] = tested on: methicillin-resistant S. aureus ATCC 33591 (MRS); assay: In vitro antimicrobial; assay type: cell-based; conditions: Staphylococcus aureus, ATCC33591, read-out: IC50 Antibacterial MRS
[7] = tested on: sex cells of the sea urchin Strongylocentrotus intermedius; conditions: at a concentration of 0.5 mg/l; ref Smetanina et al., 2007; cited from earlier work
[8] = tested on: P. falciparum chloroquine-sensitive strain (D6, Sierra Leone); assay: In vitro antimalarial activity, plasmodial LDH activity; assay type: cell-based, Plasmodium falciparum; conditions: chloroquine-sensitive strain D6, 72 h
[9] = tested on: P. falciparum chloroquine-resistant strain (W2, Indo China); assay: as above; assay type: cell-based, Plasmodium falciparum; conditions: chloroquine-resistant strain W2, 72 h
[10] = ref Ali et al., 1989; cited from earlier work
[11] = ref Mori et al., 1984; cited from earlier work
[12] = ref Vesonder et al., 1988; cited from earlier work
[13] = ref Vesonder et al., 1988; cited from earlier work; remark: listed apart in the source
[14] = ref Fujimoto et al. 1999; cited from earlier work
[15] = tested on: visceral and cutaneous leishmaniasis; conditions: oral drug, ref Berman, 2008; cited from earlier work

Row | Structure (SMILES) | IC50 [1] | IC50 [2] | IC50 [6] | antioxidant activity and radical scavenging activity against DPPH [4] | inhibition of mouse skin tumor promotion [5] | other results
1 | CCCCCC/C=C\CCCCCCCC(=O)O [(9Z)-hexadecenoic acid] |  |  |  |  |  | potency against S. aureus relative to (6Z, 9Z, 12Z)-hexadecatrienoic acid (HTA) (S. aureus): about twice as much
2 | CCCCC/C=C/c1c(O)cc(CC=C(C)C)c(O)c1CO [Compound 1, (E)-2-(hept-1-enyl)-3-(hydroxymethyl)-5-(3-methylbut-2-enyl)benzene-1,4-diol] | > 20 µg/mL | > 20 µg/mL |  |  |  | 
3 | CCCCCCCc1c(O)cc(CC=C(C)C)c(O)c1C=O [Compound 2, flavoglaucin] | > 20 µg/mL |  |  | antioxidant activity and radical scavenging activity | inhibited | mitochondrial respiration [3]: inhibited mitochondrial respiration; mitochondrial swelling [3]: induced mitochondrial swelling; cytotoxicity to HeLa cells (HeLa cells): cytotoxic
4 | CCCCC/C=C/c1c(O)cc(CC=C(C)C)c(O)c1C=O [Compound 3, tetrahydroauroglaucin] | > 20 µg/mL |  | > 20 µg/mL | antioxidant activity and radical scavenging activity | inhibited | cytotoxic activity against sex cells of the sea urchin [7]: cytotoxic activity
5 | CCC/C=C/C=C/c1c(O)cc(CC=C(C)C)c(O)c1C=O [Compound 4, dihydroauroglaucin] | > 20 µg/mL | > 20 µg/mL | > 20 µg/mL | antioxidant activity and radical scavenging activity | inhibited | IC50 Antimalarial P. falciparum D6 [8]: inactive; IC50 Antimalarial P. falciparum W2 [9]: inactive
6 | CCC/C=C/c1cc2c(C=O)c(O)c(CC=C(C)C)cc2o1 [Compound 6, 2-(2′,3-epoxy-1′,3′-heptadienyl)-6-hydroxy-5-(3-methyl-2-butenyl)benzaldehyde] |  |  |  | antioxidant activity and radical scavenging activity |  | IC50 Antimalarial P. falciparum D6 [8]: inactive; IC50 Antimalarial P. falciparum W2 [9]: inactive
7 | C=CC(C)(C)c1[nH]c2c(CC=C(C)C)cc(CC=C(C)C)cc2c1C[C@@H]1NC(=O)[C@H](C)NC1=O [Compound 7, echinulin] | > 20 µg/mL | > 20 µg/mL | > 20 µg/mL |  |  | organ damage (alveolar, liver) [10]: severe damage of alveolar organization and thickening of alveolar walls and liver damage; genotoxicity [11]: not genotoxic; concentration in food that swine refused to eat [12]: 8 µg/L; concentration in the water causing drinking refusal in mice [13]: 90 mg/L; cytotoxicity to HeLa cells (HeLa cells; at the concentration of 100 mg/l, ref Umeda et al., 1974, Wang et al., 2006): cytotoxicity
8 | CCCCCCCCCCCCCCCCOP(=O)([O-])OCC[N+](C)(C)C [Miltefosine] |  |  |  |  |  | cure rates [15]: about 98%

Now from value to compound, other results behind:

Row | IC50 [1] | IC50 [2] | IC50 [6] | Structure (SMILES) | antioxidant activity and radical scavenging activity against DPPH [4] | inhibition of mouse skin tumor promotion [5] | other results
9 | > 20 µg/mL | > 20 µg/mL | > 20 µg/mL | C/C=C/C=C/C=C/c1c(O)cc(CC=C(C)C)c(O)c1C=O [Compound 5, auroglaucin] | antioxidant activity and radical scavenging activity | inhibited | 
10 |  | > 20 µg/mL | > 20 µg/mL | Cc1c(O)cc(O)c2c1COC2=O [Compound 8, 5,7-dihydroxy-4-methylphthalide] |  |  | immunosuppressive activity [14]: immunosuppressive activity
